In the NIST ThermoML archive (doi:10.1016/j.jct.2006.08.009):
Numbers after ± are expanded uncertainties.

Assay: mn = molality of the nth substance listed, in mol/kg
Settings: 350 kPa, Liquid; for apparent molar heat capacity: Extra sensitive DSC

OCC(O)CO [glycerol] + O
Settings	apparent molar heat capacity [J/K/mol]	mass density [kg/m3]
278.15 K, m1 = 0.02	210 ± 86	1000.56 ± 0.17
278.15 K, m1 = 0.05	208 ± 35	1001.19 ± 0.17
278.15 K, m1 = 0.1	208.3 ± 18	1002.32 ± 0.17
278.15 K, m1 = 0.2501	206.7 ± 7.7	1005.96 ± 0.18
278.15 K, m1 = 0.5002	206 ± 4.8	1011.28 ± 0.19
278.15 K, m1 = 1.001	203.2 ± 3.6	1021.37 ± 0.21
278.15 K, m1 = 2	200 ± 3.1	1040.06 ± 0.25
278.15 K, m1 = 3.003	192.1 ± 3.1	1056.11 ± 0.28
278.15 K, m1 = 4.999	196.4 ± 2.9	1082.51 ± 0.33
283.15 K, m1 = 0.02	220 ± 80	1000.32 ± 0.17
283.15 K, m1 = 0.05	219 ± 33	1000.93 ± 0.17
283.15 K, m1 = 0.1	219.7 ± 17	1002.05 ± 0.17
283.15 K, m1 = 0.2501	218.3 ± 7.2	1005.34 ± 0.18
283.15 K, m1 = 0.5002	217.4 ± 4.2	1010.56 ± 0.19
283.15 K, m1 = 1.001	215.1 ± 3	1020.54 ± 0.21
283.15 K, m1 = 2	212.1 ± 2.5	1038.67 ± 0.24
283.15 K, m1 = 3.003	206.8 ± 2.3	1054.65 ± 0.28
283.15 K, m1 = 4.999	207.4 ± 2.1	1080.68 ± 0.33
288.15 K, m1 = 0.02	229 ± 77	999.7 ± 0.17
288.15 K, m1 = 0.05	227 ± 32	1000.3 ± 0.16
288.15 K, m1 = 0.1	227.7 ± 16	1001.41 ± 0.17
288.15 K, m1 = 0.2501	226.4 ± 6.9	1004.63 ± 0.17
288.15 K, m1 = 0.5002	225.6 ± 4.1	1009.79 ± 0.18
288.15 K, m1 = 1.001	223.5 ± 2.9	1019.64 ± 0.2
288.15 K, m1 = 2	220.6 ± 2.4	1037.48 ± 0.24
288.15 K, m1 = 3.003	215.7 ± 2.1	1053.13 ± 0.27
288.15 K, m1 = 4.999	215.28 ± 1.9	1078.92 ± 0.33
293.15 K, m1 = 0.02	235 ± 72	–
293.15 K, m1 = 0.05	233 ± 30	–
293.15 K, m1 = 0.1	234 ± 15	–
293.15 K, m1 = 0.2501	233 ± 6.5	–
293.15 K, m1 = 0.5002	232.3 ± 3.9	–
293.15 K, m1 = 1.001	230.4 ± 2.7	–
293.15 K, m1 = 2	227.5 ± 2.2	–
293.15 K, m1 = 3.003	222.75 ± 2	–
293.15 K, m1 = 4.999	221.83 ± 1.8	–
298.15 K, m1 = 0.02	240 ± 68	997.59 ± 0.17
298.15 K, m1 = 0.05	239 ± 26	998.2 ± 0.17
298.15 K, m1 = 0.1	239.7 ± 14	999.29 ± 0.17
298.15 K, m1 = 0.2501	238.6 ± 6.2	1002.43 ± 0.17
298.15 K, m1 = 0.5002	238 ± 3.7	1007.48 ± 0.18
298.15 K, m1 = 1.001	236.1 ± 2.7	1017.07 ± 0.2
298.15 K, m1 = 2	233.27 ± 2.1	1034.46 ± 0.24
298.15 K, m1 = 3.003	228.47 ± 2	1049.73 ± 0.27
298.15 K, m1 = 4.999	227.35 ± 1.7	1074.96 ± 0.32
303.15 K, m1 = 0.02	245 ± 63	–
303.15 K, m1 = 0.05	244 ± 25	–
303.15 K, m1 = 0.1	244.7 ± 13	–
303.15 K, m1 = 0.2501	243.6 ± 5.9	–
303.15 K, m1 = 0.5002	243 ± 3.6	–
303.15 K, m1 = 1.001	241.1 ± 2.5	–
303.15 K, m1 = 2	238.33 ± 2.1	–
303.15 K, m1 = 3.003	233.46 ± 1.9	–
303.15 K, m1 = 4.999	232.27 ± 1.7	–
308.15 K, m1 = 0.02	249 ± 60	994.55 ± 0.18
308.15 K, m1 = 0.05	248.4 ± 24	995.16 ± 0.17
308.15 K, m1 = 0.1	249 ± 12	996.23 ± 0.17
308.15 K, m1 = 0.2501	247.9 ± 5.5	999.33 ± 0.17
308.15 K, m1 = 0.5002	247.4 ± 3.4	1004.29 ± 0.17
308.15 K, m1 = 1.001	245.5 ± 2.5	1013.67 ± 0.19
308.15 K, m1 = 2	242.76 ± 2	1030.71 ± 0.23
308.15 K, m1 = 3.003	237.83 ± 1.8	1045.67 ± 0.26
308.15 K, m1 = 4.999	236.6 ± 1.6	1070.41 ± 0.31
313.15 K, m1 = 0.02	253 ± 55	–
313.15 K, m1 = 0.05	252.1 ± 22	–
313.15 K, m1 = 0.1	252.9 ± 12	–
313.15 K, m1 = 0.2501	251.9 ± 5.2	–
313.15 K, m1 = 0.5002	251.3 ± 3.3	–
313.15 K, m1 = 1.001	249.4 ± 2.4	–
313.15 K, m1 = 2	246.75 ± 2	–
313.15 K, m1 = 3.003	241.83 ± 1.8	–
313.15 K, m1 = 4.999	240.56 ± 1.6	–
318.15 K, m1 = 0.02	257 ± 52	990.73 ± 0.18
318.15 K, m1 = 0.05	255.7 ± 21	991.32 ± 0.18
318.15 K, m1 = 0.1	256.3 ± 11	992.37 ± 0.18
318.15 K, m1 = 0.2501	255.4 ± 4.9	995.42 ± 0.17
318.15 K, m1 = 0.5002	254.8 ± 3.1	1000.34 ± 0.17
318.15 K, m1 = 1.001	252.98 ± 2.3	1009.55 ± 0.18
318.15 K, m1 = 2	250.33 ± 1.9	1026.3 ± 0.22
318.15 K, m1 = 3.003	245.4 ± 1.8	1041.09 ± 0.25
318.15 K, m1 = 4.999	244.12 ± 1.6	1065.4 ± 0.3
323.15 K, m1 = 0.02	260 ± 48	–
323.15 K, m1 = 0.05	258.8 ± 20	–
323.15 K, m1 = 0.1	259.4 ± 10	–
323.15 K, m1 = 0.2501	258.6 ± 4.7	–
323.15 K, m1 = 0.5002	258 ± 3	–
323.15 K, m1 = 1.001	256.23 ± 2.2	–
323.15 K, m1 = 2	253.61 ± 1.9	–
323.15 K, m1 = 3.003	248.72 ± 1.7	–
323.15 K, m1 = 4.999	247.42 ± 1.5	–
328.15 K, m1 = 0.02	263 ± 46	986.19 ± 0.19
328.15 K, m1 = 0.05	261.7 ± 18	986.78 ± 0.19
328.15 K, m1 = 0.1	262.3 ± 9.6	987.77 ± 0.19
328.15 K, m1 = 0.2501	261.5 ± 4.4	990.83 ± 0.18
328.15 K, m1 = 0.5002	261 ± 2.8	995.67 ± 0.17
328.15 K, m1 = 1.001	259.22 ± 2.2	1004.79 ± 0.18
328.15 K, m1 = 2	256.62 ± 1.8	1021.31 ± 0.21
328.15 K, m1 = 3.003	251.8 ± 1.7	1035.9 ± 0.24
328.15 K, m1 = 4.999	250.48 ± 1.5	1059.9 ± 0.29
333.15 K, m1 = 0.02	266 ± 42	–
333.15 K, m1 = 0.05	264.5 ± 17	–
333.15 K, m1 = 0.1	265 ± 9	–
333.15 K, m1 = 0.2501	264.3 ± 4.3	–
333.15 K, m1 = 0.5002	263.72 ± 2.8	–
333.15 K, m1 = 1.001	262 ± 2.1	–
333.15 K, m1 = 2	259.44 ± 1.8	–
333.15 K, m1 = 3.003	254.69 ± 1.7	–
333.15 K, m1 = 4.999	253.36 ± 1.5	–
338.15 K, m1 = 0.02	268.5 ± 40	981.05 ± 0.21
338.15 K, m1 = 0.05	267 ± 16	981.63 ± 0.2
338.15 K, m1 = 0.1	267.6 ± 8.6	982.65 ± 0.2
338.15 K, m1 = 0.2501	266.8 ± 4.1	985.63 ± 0.2
338.15 K, m1 = 0.5002	266.28 ± 2.7	990.4 ± 0.19
338.15 K, m1 = 1.001	264.6 ± 2.1	999.46 ± 0.17
338.15 K, m1 = 2	262.07 ± 1.8	1015.84 ± 0.2
338.15 K, m1 = 3.003	257.43 ± 1.6	1030.29 ± 0.23
338.15 K, m1 = 4.999	256.04 ± 1.4	1054 ± 0.28
343.15 K, m1 = 0.02	270.6 ± 39	–
343.15 K, m1 = 0.05	269.2 ± 16	–
343.15 K, m1 = 0.1	269.8 ± 8.4	–
343.15 K, m1 = 0.2501	269.15 ± 3.9	–
343.15 K, m1 = 0.5002	268.63 ± 2.6	–
343.15 K, m1 = 1.001	266.97 ± 2	–
343.15 K, m1 = 2	264.48 ± 1.7	–
343.15 K, m1 = 3.003	259.94 ± 1.6	–
343.15 K, m1 = 4.999	258.51 ± 1.4	–
348.15 K, m1 = 0.02	272.9 ± 39	975.36 ± 0.22
348.15 K, m1 = 0.05	271.3 ± 16	975.93 ± 0.22
348.15 K, m1 = 0.1	271.9 ± 8.4	976.93 ± 0.21
348.15 K, m1 = 0.2501	271.31 ± 3.9	979.9 ± 0.21
348.15 K, m1 = 0.5002	270.82 ± 2.6	984.63 ± 0.2
348.15 K, m1 = 1.001	269.16 ± 2	993.59 ± 0.18
348.15 K, m1 = 2	266.71 ± 1.7	1009.84 ± 0.19
348.15 K, m1 = 3.003	262.29 ± 1.6	1024.18 ± 0.22
348.15 K, m1 = 4.999	260.82 ± 1.4	1047.69 ± 0.26
353.15 K, m1 = 0.02	274.8 ± 39	–
353.15 K, m1 = 0.05	273.1 ± 16	–
353.15 K, m1 = 0.1	273.9 ± 8.4	–
353.15 K, m1 = 0.2501	273.26 ± 3.8	–
353.15 K, m1 = 0.5002	272.82 ± 2.5	–
353.15 K, m1 = 1.001	271.17 ± 2	–
353.15 K, m1 = 2	268.75 ± 1.7	–
353.15 K, m1 = 3.003	264.53 ± 1.6	–
353.15 K, m1 = 4.999	262.96 ± 1.4	–
358.15 K, m1 = 0.02	276.3 ± 39	969.12 ± 0.23
358.15 K, m1 = 0.05	274.7 ± 16	969.7 ± 0.23
358.15 K, m1 = 0.1	275.6 ± 8.4	970.69 ± 0.23
358.15 K, m1 = 0.2501	274.92 ± 3.8	973.64 ± 0.22
358.15 K, m1 = 0.5002	274.47 ± 2.5	978.33 ± 0.21
358.15 K, m1 = 1.001	272.82 ± 2	987.24 ± 0.19
358.15 K, m1 = 2	270.44 ± 1.7	1003.38 ± 0.18
358.15 K, m1 = 3.003	266.6 ± 1.6	1017.63 ± 0.2
358.15 K, m1 = 4.999	264.75 ± 1.4	1041.02 ± 0.25
363.15 K, m1 = 0.02	277.1 ± 39	–
363.15 K, m1 = 0.05	275.5 ± 16	–
363.15 K, m1 = 0.1	276.5 ± 8.4	–
363.15 K, m1 = 0.2501	275.65 ± 3.9	–
363.15 K, m1 = 0.5002	275.17 ± 2.6	–
363.15 K, m1 = 1.001	273.45 ± 2	–
363.15 K, m1 = 2	271.04 ± 1.8	–
363.15 K, m1 = 3.003	268.61 ± 1.6	–
363.15 K, m1 = 4.999	265.49 ± 1.5	–
368.15 K, m1 = 0.02	–	962.42 ± 0.25
368.15 K, m1 = 0.05	–	963 ± 0.24
368.15 K, m1 = 0.1	–	963.94 ± 0.24
368.15 K, m1 = 0.2501	–	966.88 ± 0.24
368.15 K, m1 = 0.5002	–	971.55 ± 0.23
368.15 K, m1 = 1.001	–	980.42 ± 0.21
368.15 K, m1 = 2	–	996.47 ± 0.18
368.15 K, m1 = 3.003	–	1010.68 ± 0.19
368.15 K, m1 = 4.999	–	1033.93 ± 0.24
